From patent US12649751B2 (Arcus Biosciences, Inc., priority 2022, dated 2026) come the findings set out here.

Where two headings read alike, the source gives them in different places.

One test deals with HPK1 (Homo sapiens, UniProt Q92918). As to the kind of experiment: HPK1 Biochemical Assay (ADP-Glo luminescence; low ATP 10 μM or high ATP 200 μM).
Test [1] relates to p-SLP-76 (Ser376) in Jurkat cells. As to the kind of experiment: pSLP76 Cellular Assay (AlphaLISA SureFire Ultra p-SLP-76 (Ser376), anti-CD3 activated Jurkat cells). Type of test: cell-based. As to conditions: Homo sapiens, read-out: Cellular Potency. The gist of the method: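 Read-out is AlphaLISA p-SLP-76 (Ser376) signal at 570 nm in Jurkat lysates, with IC50 fitted by 4-parameter logistic. Cells were starved overnight, exposed 1 h at 37 °C to 22 twofold compound dilutions in HBSS, then activated 45 min with anti-CD3 (0.025 mg/ml stock added).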

[2] abbreviates: HPK1 ADP-Glo assay, high ATP (200 μM ATP, 5 nM HPK1), read-out: Biochemical Potency (high ATP).
[3] abbreviates: pSLP76 (Ser376) AlphaLISA, anti-CD3 activated Jurkat cells.
Where [4] appears, read: 2 nM HPK1, 10 μM ATP, read-out: Biochemical Potency (low ATP).
Where [5] appears, read: Jurkat cells, anti-CD3 stimulation, pSLP76.
Where [6] appears, read: HPK1 ADP-Glo assay, low ATP (10 μM ATP, 2 nM HPK1), read-out: Biochemical Potency (low ATP).

Chain of HPK1 (Q92918 whole entry, species assumed): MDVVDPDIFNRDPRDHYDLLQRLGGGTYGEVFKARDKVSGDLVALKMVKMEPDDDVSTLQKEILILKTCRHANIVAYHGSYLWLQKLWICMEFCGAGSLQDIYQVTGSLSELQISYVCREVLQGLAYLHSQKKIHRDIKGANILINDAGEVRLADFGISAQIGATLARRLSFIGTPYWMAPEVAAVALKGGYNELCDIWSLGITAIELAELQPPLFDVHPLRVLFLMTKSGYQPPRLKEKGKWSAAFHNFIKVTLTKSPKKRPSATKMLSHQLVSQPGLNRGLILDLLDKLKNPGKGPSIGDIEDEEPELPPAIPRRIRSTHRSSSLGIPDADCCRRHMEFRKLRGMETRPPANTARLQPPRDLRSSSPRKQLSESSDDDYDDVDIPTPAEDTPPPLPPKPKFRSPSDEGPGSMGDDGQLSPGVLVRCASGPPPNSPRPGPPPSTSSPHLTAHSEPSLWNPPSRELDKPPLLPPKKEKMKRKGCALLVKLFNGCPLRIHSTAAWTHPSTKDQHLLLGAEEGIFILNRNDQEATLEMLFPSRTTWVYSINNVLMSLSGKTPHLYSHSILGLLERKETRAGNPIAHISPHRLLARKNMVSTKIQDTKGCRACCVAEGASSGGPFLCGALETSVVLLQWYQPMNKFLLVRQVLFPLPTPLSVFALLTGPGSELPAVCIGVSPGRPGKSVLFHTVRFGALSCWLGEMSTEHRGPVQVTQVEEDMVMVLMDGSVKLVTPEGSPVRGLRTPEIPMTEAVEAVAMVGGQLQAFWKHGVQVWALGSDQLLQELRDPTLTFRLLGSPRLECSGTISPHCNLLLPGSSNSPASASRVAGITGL

With `CCN1C[C@@H]2C[C@H]1CN2c1nc(C)cc(Nc2cc3nc(O[C@@H](C)c4ccccc4)sc3cn2)n1` [Example 483], the IC50 is < 100 nM at HPK1 (setting [2]) and 100 to 1000 nM in test [1] (setting [3]).
As for `Cc1c(-c2nc3cc(Nc4ccc(N5CCOCC5)c(CN5CCCC5)n4)ncc3s2)cnc2c1NCCO2` [Example 27, N-(2-{8-Methyl-1H,2H,3H-pyrido[2,3-b][1,4]oxazin-7-yl}-[1,3]thiazolo[5,4-c]pyridin-6-yl)-5-(morpholin-4-yl)-6-[(pyrrolidin-1-yl)methyl]pyridin-2-amine], the IC50 at HPK1 (setting [4]) is < 100 nM; in test [1] (setting [5]), 100 to 1000 nM.
The matching figures for `Cc1cccnc1-c1nc2cc(Nc3ccc(Cl)c(N4C[C@@H]5C[C@H]4CN5C)n3)ncc2s1` [Example 110, 5-Chloro-6-[(1S,4S)-5-methyl-2,5-diazabicyclo[2.2.1]heptan-2-yl]-N-[2-(3-methylpyridin-2-yl)-[1,3]thiazolo[5,4-c]pyridin-6-yl]pyridin-2-amine]: < 100 nM and 100 to 1000 nM.
Turning to `Cc1cccnc1-c1nc2cc(Nc3ccc4c(n3)[C@H](N)CCC4)ncc2s1` [Example 317, (8R)-N2-[2-(3-methylpyridin-2-yl)-[1,3]thiazolo[5,4-c]pyridin-6-yl]-5,6,7,8-tetrahydroquinoline-2,8-diamine], the IC50 on HPK1 (setting [6]) was < 100 nM; in test [1] (setting [3]) it was 1000 to 5000 nM.
For the molecule `Cn1cc(-c2nc3cc(Nc4ccc(N5CCOCC5)c(CN5CCCC5)n4)ncc3s2)cn1` [Example 24, N-[2-(1-Methyl-1H-pyrazol-4-yl)-[1,3]thiazolo[5,4-c]pyridin-6-yl]-5-(morpholin-4-yl)-6-[(pyrrolidin-1-yl)methyl]pyridin-2-amine], the IC50 is < 100 nM at HPK1 (setting [4]) and 100 to 1000 nM in test [1] (setting [5]).
On to `Cc1cc(Nc2cc3nc(-c4cnn5c4COCC5)sc3cn2)nc(N2C[C@@H]3C[C@H]2CN3C)n1` [Example 385], for which the IC50 on HPK1 (setting [2]) was < 100 nM; in test [1] (setting [3]), 100 to 1000 nM.
As for `Cc1cc(Nc2cc3nc(-c4cccc(C(N)=O)c4)sc3cn2)nc(N2C[C@@H]3C[C@H]2CN3CCO)n1` [Example 553], the IC50 is < 100 nM on HPK1 (setting [2]) and 1000 to 5000 nM in test [1] (setting [3]).
In the case of `CCN1C[C@@H]2C[C@H]1CN2c1nc(C)cc(Nc2cc3nc(-c4cccc(C(=O)N5CCC[C@@H]5COC)c4)sc3cn2)n1` [Example 535], the IC50 (at HPK1 (setting [2]); in test [1] (setting [3])) was < 100 nM each time.
Consider `Cc1cc(Nc2cc3nc(-c4ccnc(N5C[C@@H](C)O[C@@H](C)C5)c4)sc3cn2)nc(N2C[C@@H]3C[C@H]2CN3CCO)n1` [Example 445], for which the IC50 on HPK1 (setting [2]) was < 100 nM; in test [1] (setting [3]), 100 to 1000 nM.
The matching figures for `Cc1cc(Nc2cc3nc(-c4cccc(C(=O)N[C@H]5CCCOC5)c4)sc3cn2)nc(N2C[C@@H]3C[C@H]2CN3CCO)n1` [Example 541]: < 100 nM and 100 to 1000 nM.
The matching figures for `Cc1cc(Nc2cc3nc(-c4ccnc(N5CC6CCC(C5)O6)c4)sc3cn2)nc(N2C[C@@H]3C[C@H]2CN3CCO)n1` [Example 448]: < 100 nM and 100 to 1000 nM.
The matching figures for `CCN1C[C@@H]2C[C@H]1CN2c1nc(C)cc(Nc2cc3nc(-c4nc(N)ccc4C)sc3cn2)n1` [Example 296, N-[2-(6-amino-3-methylpyridin-2-yl)-[1,3]thiazolo[5,4-c]pyridin-6-yl]-2-[(1S,4S)-5-ethyl-2,5-diazabicyclo[2.2.1]heptan-2-yl]-6-methylpyrimidin-4-amine]: < 100 nM and < 100 nM.
Regarding `Cc1cccnc1-c1nc2cc(Nc3ccnc(N4C[C@@H](N)C[C@H]4CO)n3)ncc2s1` [Example 155, [(2S,4S)-4-Mmino-1-(4-{[2-(3-methylpyridin-2-yl)-[1,3]thiazolo[5,4-c]pyridin-6-yl]amino}pyrimidin-2-yl)pyrrolidin-2-yl]methanol], the IC50 on HPK1 (setting [4]) is < 100 nM; in test [1] (setting [5]), 100 to 1000 nM.
The matching figures for `Cc1ccncc1-c1nc2cc(Nc3ccc(N4CCOCC4)c(CN(C)C)n3)ncc2s1` [Example 3, 6-[(Dimethylamino)methyl]-N-[2-(4-methylpyridin-3-yl)-[1,3]thiazolo[5,4-c]pyridin-6-yl]-5-(morpholin-4-yl)pyridin-2-amine]: < 100 nM and 100 to 1000 nM.
For the molecule `CNS(=O)(=O)c1cccc(-c2nc3cc(Nc4cncc(N5C[C@@H]6C[C@H]5CN6C)n4)ncc3s2)c1` [Example 416], the IC50 on HPK1 (setting [6]) was < 100 nM; in test [1] (setting [3]) it was 100 to 1000 nM.
Consider `CNS(=O)(=O)c1cccc(-c2nc3cc(Nc4ccnc(N5C[C@@H]6C[C@H]5CN6C)n4)ncc3s2)c1` [Example 291, N-methyl-3-[6-({2-[(1S,4S)-5-methyl-2,5-diazabicyclo[2.2.1]heptan-2-yl]pyrimidin-4-yl}amino)-[1,3]thiazolo[5,4-c]pyridin-2-yl]benzene-1-sulfonamide], for which the IC50 was < 100 nM on HPK1 (setting [4]) and 100 to 1000 nM in test [1] (setting [5]).
In the case of `CCN1C[C@@H]2C[C@H]1CN2c1nc(C)cc(Nc2cc3nc(-c4cccc(S(=O)(=O)CC(C)C)c4)sc3cn2)n1` [Example 339], the figures for the IC50 (at HPK1 (setting [2]); in test [1] (setting [3])) were < 100 nM and 100 to 1000 nM, respectively.
The matching figures for `CCN1C[C@@H]2C[C@H]1CN2c1nc(C)cc(Nc2cc3nc(-c4cccc(C(=O)N[C@@H](C)C5CC5)c4)sc3cn2)n1` [Example 525]: < 100 nM and < 100 nM.
As for `CCN1C[C@@H]2C[C@H]1CN2c1nc(C)cc(Nc2cc3nc(-c4cncc(N5C[C@H]6COC[C@H]6C5)c4)sc3cn2)n1` [Example 472], the IC50 was < 100 nM at HPK1 (setting [2]) and 100 to 1000 nM in test [1] (setting [3]).
For `CC(=O)Nc1cccc(-c2nc3cc(Nc4cc(C)nc(N5C[C@@H]6C[C@H]5CN6C)n4)ncc3s2)c1` [Example 423], the values for the IC50 (at HPK1 (setting [2]); in test [1] (setting [3])) were < 100 nM and 100 to 1000 nM, respectively.
As to `CCN(C)C(=O)c1cccc(-c2nc3cc(Nc4cc(C)nc(N5C[C@@H]6C[C@H]5CN6CCO)n4)ncc3s2)c1` [Example 505], the IC50 (at HPK1 (setting [2]); in test [1] (setting [3])) was < 100 nM throughout.
Regarding `CCN1C[C@@H]2C[C@H]1CN2c1nc(C)cc(Nc2cc3nc(-c4ccnc(C(=O)NC5CCCC5)c4)sc3cn2)n1` [Example 514], the IC50 at HPK1 (setting [2]) was < 100 nM; in test [1] (setting [3]) it was 100 to 1000 nM.
Regarding `OCCN1C[C@@H]2C[C@H]1CN2c1nc(Nc2cc3nc(-c4cnn(CC5CC5)c4)sc3cn2)ccc1F` [Example 424], the IC50 on HPK1 (setting [2]) is < 100 nM; in test [1] (setting [3]), 100 to 1000 nM.
The matching figures for `CO[C@H]1CCN(c2cc(-c3nc4cc(Nc5cc(C)nc(N6C[C@@H]7C[C@H]6CN7CCO)n5)ncc4s3)ccn2)C1` [Example 454]: < 100 nM and 100 to 1000 nM.
As to `CN(Cc1nc(Nc2cc3nc(-c4c(F)cccc4F)sc3cn2)ccc1N1CCOCC1)S(C)(=O)=O` [Example 31, N-[(6-{[2-(2,6-Difluorophenyl)-[1,3]thiazolo[5,4-c]pyridin-6-yl]amino}-3-(morpholin-4-yl)pyridin-2-yl)methyl]-N-methylmethanesulfonamide], the IC50 was 1000 to 5000 nM on HPK1 (setting [4]) and > 5000 nM in test [1] (setting [5]).
`CN1C[C@@H]2C[C@H]1CN2c1nccc(Nc2cc3nc(-c4cccc(S(=O)(=O)C5CC5)c4)sc3cn2)n1` [Example 405]: the figures for the IC50 (on HPK1 (setting [2]); in test [1] (setting [3])) were < 100 nM and 100 to 1000 nM, respectively.
On to `Cc1cc(Nc2cc3nc(-c4cccc(C(C)(C)O)c4F)sc3cn2)nc(N2C[C@@H]3C[C@H]2CN3C)n1` [Example 401], for which the values for the IC50 (on HPK1 (setting [2]); in test [1] (setting [3])) were < 100 nM and 100 to 1000 nM, respectively.
Take `CCN1C[C@@H]2C[C@H]1CN2c1nc(C)cc(Nc2cc3nc(-c4cc(Cl)cc(C(=O)N(C)C)c4)sc3cn2)n1` [Example 519]: the IC50 at HPK1 (setting [2]) is < 100 nM; in test [1] (setting [3]), 100 to 1000 nM.
The matching figures for `CCN1C[C@@H]2C[C@H]1CN2c1nc(C)cc(Nc2cc3nc(-c4cccc(C(=O)N5CCC(F)CC5)c4)sc3cn2)n1` [Example 538]: < 100 nM and < 100 nM.
The matching figures for `Cc1cc(Nc2cc3nc(-c4nncn4C)sc3cn2)nc(N2C[C@@H]3C[C@H]2CN3CCO)n1` [Example 299, 2-[(1S,4S)-5-(4-methyl-6-{[2-(4-methyl-4H-1,2,4-triazol-3-yl)-[1,3]thiazolo[5,4-c]pyridin-6-yl]amino}pyrimidin-2-yl)-2,5-diazabicyclo[2.2.1]heptan-2-yl]ethan-1-ol]: < 100 nM and 100 to 1000 nM.
As for `CS(=O)(=O)c1cccc(-c2nc3cc(Nc4cccc(N5C[C@@H]6C[C@H]5CN6)n4)ncc3s2)c1` [Example 141, 6-[(1S,4S)-2,5-Diazabicyclo[2.2.1]heptan-2-yl]-N-[2-(3-methanesulfonylphenyl)-[1,3]thiazolo[5,4-c]pyridin-6-yl]pyridin-2-amine], the IC50 on HPK1 (setting [4]) was < 100 nM; in test [1] (setting [5]) it was 100 to 1000 nM.
For the molecule `CN(C)Cc1nc(Nc2cc3nc(-c4cccnc4)sc3cn2)ccc1N1CCOCC1` [Example 6, 6-[(Dimethylamino)methyl]-5-(morpholin-4-yl)-N-[2-(pyridin-3-yl)-[1,3]thiazolo[5,4-c]pyridin-6-yl]pyridin-2-amine], the IC50 is < 100 nM on HPK1 (setting [4]) and 100 to 1000 nM in test [1] (setting [5]).
In the case of `Cc1cc(Nc2cc3nc(-c4cccc(C(=O)N(C)C)c4)sc3cn2)nc(N2C[C@@H]3C[C@H]2CN3[C@H]2CCOC2)n1` [Example 487], the IC50 (on HPK1 (setting [2]); in test [1] (setting [3])) was < 100 nM each time.
